This test concerns the target T1, Vitamin D3 receptor (Homo sapiens) (UniProt P11473).
T1 sequence (whole entry): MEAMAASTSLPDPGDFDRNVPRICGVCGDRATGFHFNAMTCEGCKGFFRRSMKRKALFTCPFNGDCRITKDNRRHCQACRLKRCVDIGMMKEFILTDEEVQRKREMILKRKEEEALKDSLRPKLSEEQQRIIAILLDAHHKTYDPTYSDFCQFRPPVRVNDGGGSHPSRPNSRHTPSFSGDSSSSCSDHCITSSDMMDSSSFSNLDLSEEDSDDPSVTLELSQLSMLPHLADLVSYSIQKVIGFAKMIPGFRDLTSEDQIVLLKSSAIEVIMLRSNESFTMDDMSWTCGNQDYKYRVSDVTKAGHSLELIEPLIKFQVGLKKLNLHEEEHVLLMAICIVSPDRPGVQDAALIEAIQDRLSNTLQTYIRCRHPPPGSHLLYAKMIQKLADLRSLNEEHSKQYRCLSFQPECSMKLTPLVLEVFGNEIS
In words: Binding affinity to VDR relative to (1-alpha 25-(OH)2D3.
The compound `CCC(CC)(c1ccc(OC[C@H](O)CO)c(C)c1)c1ccc(OC[C@H](O)C(C)(C)C)c(C)c1` registered an Activity of 0.482.

`CCC(CC)(c1ccc(OC[C@@H](O)CO)c(C)c1)c1ccc(OC[C@@H](O)C(C)(C)C)c(C)c1`: the Activity amounted to 0.831.

As for `CCC(CC)(c1ccc(OC[C@@H](O)CO)c(C)c1)c1ccc(OC[C@H](O)C(C)(C)C)c(C)c1`, the Activity amounted to 28.3.

Consider `CCC(CC)(c1ccc(OC[C@H](O)CO)c(C)c1)c1ccc(OC[C@@H](O)C(C)(C)C)c(C)c1`, for which the Activity amounted to 0.112.

The values are drawn from ChEMBL document CHEMBL1143855, “(2S,2'R)-analogue of LG190178 is a major active isomer” (Bioorg Med Chem Lett, 2008).
